{"source": "patent US20240287108A1", "about": "“nSMASE2 INHIBITOR PRODRUGS WITH ENHANCED ORAL AND BRAIN EXPOSURES” (The Johns Hopkins University, priority 2021, published 2024)", "key": {"[1]": {"test": "in vivo pharmacokinetic studies in mice (Example 1)", "design": "species or system mouse", "conditions": "for AUC / MRT / half-life / Cmax: 10 mg/kg", "experimental": "1.2.1 In vitro metabolic stability assessment. In vitro metabolic stability assessment was performed using mouse plasma, and liver homogenates. For the liver homogenates, washed tissues were diluted 10-fold in 0.1 M potassium phosphate buffer and homogenized using a probe sonicator. To evaluate the stability of the intact prodrug over time, each of the tissue matrix were aliquoted to 1 mL and then spiked with 10 μM of corresponding prodrugs followed by incubation in an orbital shaker at 37° C. for 1 h (in triplicate). Sample from each incubation at predetermined time points (0 min, and 1 h) was quenched with three volumes of acetonitrile containing the internal standard (IS: losartan: 0.5 μm). Samples were vortex-mixed for 30 secs and centrifuged at 10,000 RPM for 10 min at 4° C. Disappearance of the intact compound was measured using liquid chromatography tandem mass spectrometry (LC-MS/MS). 1.2.2 In vivo pharmacokinetic studies in mice. Male CD-1 mice (n=3) were used to study the pharmacokinetic profiles of representive prodrug compounds. […] Blood and brain were collected after sacrificing the mice at predetermined time points. Plasma was harvested from blood by centrifugation at 3,000 RPM for 15 min and stored at −80° C. Brain tissues were harvested following blood collection and immediately snap frozen in liquid nitrogen and stored at −80° C. until LC-MS/MS analysis. […] Brain tissues were diluted 1:5 w/v with acetonitrile containing losartan (0.5 μm) and homogenized, followed by vortex-mixing and centrifugation at 10,000 RPM for 10 min at 4° C. A 50 μL aliquot of the supernatant was diluted with 50 μL of water and transferred to 250 μL polypropylene autosampler vials sealed with teflon caps. Then, 2 μL of the sample was injected into the LC-MS/MS system for analysis."}, "[2]": {"test": "time-dependent oral pharmacokinetics in mice", "format": "in vivo, mouse", "experimental": "As described earlier, we identified P1 and P18 as the most promising candidates for time dependent PK.\n(§1) All PK studies in mice were conducted according to protocols approved by the Animal Care and Use Committee at Johns Hopkins University. Male CD-1 mice between 25 and 30 g were obtained from Harlan and maintained on a 12 h light-dark cycle with ad libitum access to food and water. […] All of the formulations were freshly prepared prior to the dosing. The mice were sacrificed at specified time points (either 2 h or 0.25, 0.5, 1, 2, 4, 6, and 8 h) post drug administration. For the collection of plasma and brain tissue, animals were euthanized with CO2, and blood samples were collected in heparinized microtubes by cardiac puncture. Brains were dissected and immediately flash frozen (−80° C.) Blood samples were spun at 2000 g for 15 min, and plasma was removed and stored at −80° C. until LC-MS/MS analysis. Prior to extraction, frozen samples were thawed on ice.\nBrain tissues were diluted 1:5 w/v with acetonitrile containing losartan (0.5 μm) and homogenized, followed by vortex-mixing and centrifugation at 10,000 g for 10 min at 4° C. A 50 μL aliquot of the supernatant were diluted with 50 uL of water and transferred to 250 μL polypropylene autosampler vials sealed with teflon caps. Then, 2 μL of the sample were injected into the LC/MS/MS system for analysis. Chromatographic analysis was performed using an Accela ultra-high-performance system consisting of an analytical pump and an autosampler coupled with a TSQ Vantage mass spectrometer. […] The mobile phase consisted of 0.1% formic acid in acetonitrile and 0.1% formic acid in water with gradient elution were used. […] Plasma concentrations (nmol/ml) as well as brain tissue concentrations (nmol/g) were determined and plots of mean plasma concentration versus time were constructed. Non-compartmental analysis modules in Phoenix WinNonlin version 7.0 (Certara USA, Inc., Princeton, NJ) were used to quantify exposures (AUC0-t)."}, "[3]": {"test": "in vitro stability in CES1−/− mouse liver homogenates", "format": "in vitro ADME", "conditions": "CES1−/− mouse liver homogenate, 10 μM, 37° C.", "experimental": "(§2) All synthesized prodrugs were next screened for in vitro stability in carboxylesterase 1 knockout (CES1^−/−) mouse plasma, as well as CES1^−/− mouse brain and liver homogenates (Table 2-1). We have previously reported that CES1^−/− mouse model recapitulates human prodrug metabolism.\n(§3) For the tissue homogenates, washed tissues were diluted 10-fold in 0.1 M potassium phosphate buffer and homogenized using a probe sonicator. To evaluate the stability of the intact prodrug over time, each of the crude homogenates and plasma were aliquoted to 1 mL and then spiked with a final assay concentration of 10 μM of each prodrug followed by incubation in an orbital shaker at 37° C. for 1 h (in triplicate). Sample from each incubation at predetermined time points (0 min, and 1 h) was quenched with three volumes of acetonitrile containing the internal standard (IS; losartan: 0.5 μm). Samples were vortex-mixed for 30 secs and centrifuged at 10,000×g for 10 min at 4° C. Disappearance of intact prodrugs from these samples were performed on a Dionex ultra-high-performance LC system coupled with Q Exactive Focus orbitrap mass spectrometer (Thermo Fisher Scientific Inc., Waltham MA). […] The mobile phase consisted of 0.1% formic acid in water and 0.1% formic acid in acetonitrile. Pumps were operated at a flow rate of 0.4 mL/min for 9 min using gradient elution. The mass spectrometer controlled by Xcalibur software 4.0.27.13 (Thermo Scientific) was operated with a heated electrospray ionization (HESI) ion source in positive ionization mode. Quantification of the prodrugs were performed in the full-scan mode (from m/z 50 to 1600) by comparing t=0 samples with t=60 min samples."}, "[4]": {"test": "single time-point (2 h) oral pharmacokinetic screening in mice", "format": "in vivo, mouse", "conditions": "single time point PK, oral 10 mg/kg DPTIP equivalent", "experimental": "as §1\nBrain tissues were diluted 1:5 w/v with acetonitrile containing losartan (0.5 μm) and homogenized, followed by vortex-mixing and centrifugation at 10,000 g for 10 min at 4° C. […] Plasma concentrations (nmol/ml) as well as brain tissue concentrations (nmol/g) were determined and plots of mean plasma concentration versus time were constructed. Non-compartmental analysis modules in Phoenix WinNonlin version 7.0 (Certara USA, Inc., Princeton, NJ) were used to quantify exposures (AUC0-t)."}, "[5]": {"test": "in vitro stability in CES1−/− mouse plasma", "format": "in vitro ADME", "conditions": "10 μM", "experimental": "All synthesized prodrugs were next screened for in vitro stability in carboxylesterase 1 knockout (CES1^−/−) mouse plasma, as well as CES1^−/− mouse brain and liver homogenates (Table 2-1). We have previously reported that CES1^−/− mouse model recapitulates human prodrug metabolism. Tenora et al., 2019.\nZimmermann et al., 2018. For the tissue homogenates, washed tissues were diluted 10-fold in 0.1 M potassium phosphate buffer and homogenized using a probe sonicator. To evaluate the stability of the intact prodrug over time, each of the crude homogenates and plasma were aliquoted to 1 mL and then spiked with a final assay concentration of 10 μM of each prodrug followed by incubation in an orbital shaker at 37° C. for 1 h (in triplicate). Sample from each incubation at predetermined time points (0 min, and 1 h) was quenched with three volumes of acetonitrile containing the internal standard (IS; losartan: 0.5 μm). Samples were vortex-mixed for 30 secs and centrifuged at 10,000×g for 10 min at 4° C. Disappearance of intact prodrugs from these samples were performed on a Dionex ultra-high-performance LC system coupled with Q Exactive Focus orbitrap mass spectrometer (Thermo Fisher Scientific Inc., Waltham MA). The separation of analytes was achieved using the Agilent Eclipse Plus column (100×2.1 mm i.d.; maintained at 35° C.) packed with a 1.8 μm C18 stationary phase. The mobile phase consisted of 0.1% formic acid in water and 0.1% formic acid in acetonitrile. Pumps were operated at a flow rate of 0.4 mL/min for 9 min using gradient elution. The mass spectrometer controlled by Xcalibur software 4.0.27.13 (Thermo Scientific) was operated with a heated electrospray ionization (HESI) ion source in positive ionization mode. Quantification of the prodrugs were performed in the full-scan mode (from m/z 50 to 1600) by comparing t=0 samples with t=60 min samples."}, "[6]": {"test": "in vitro stability in CES1−/− mouse brain homogenates", "format": "in vitro ADME", "conditions": "CES1−/− mouse brain homogenate, 10 μM, 37° C.", "experimental": "as §2, §3"}, "[7]": {"test": "dog plasma pharmacokinetics", "format": "in vivo", "conditions": "IV 2 mg/kg"}, "[8]": {"system": "EV release", "conditions": "previously reported; in vitro (b234 also in vivo when delivered systemically); cited from earlier work"}, "[9]": {"conditions": "previously reported pharmacokinetics; cited from earlier work"}, "[10]": {"test": "in vitro metabolic stability in mouse plasma (Example 1)", "format": "in vitro ADME", "conditions": "10 μM, 37° C.", "experimental": "1.2.1 In vitro metabolic stability assessment. In vitro metabolic stability assessment was performed using mouse plasma, and liver homogenates. For the liver homogenates, washed tissues were diluted 10-fold in 0.1 M potassium phosphate buffer and homogenized using a probe sonicator. To evaluate the stability of the intact prodrug over time, each of the tissue matrix were aliquoted to 1 mL and then spiked with 10 μM of corresponding prodrugs followed by incubation in an orbital shaker at 37° C. for 1 h (in triplicate). Sample from each incubation at predetermined time points (0 min, and 1 h) was quenched with three volumes of acetonitrile containing the internal standard (IS: losartan: 0.5 μm). Samples were vortex-mixed for 30 secs and centrifuged at 10,000 RPM for 10 min at 4° C. Disappearance of the intact compound was measured using liquid chromatography tandem mass spectrometry (LC-MS/MS). 1.2.2 In vivo pharmacokinetic studies in mice. Male CD-1 mice (n=3) were used to study the pharmacokinetic profiles of representive prodrug compounds. […] Blood and brain were collected after sacrificing the mice at predetermined time points. Plasma was harvested from blood by centrifugation at 3,000 RPM for 15 min and stored at −80° C. Brain tissues were harvested following blood collection and immediately snap frozen in liquid nitrogen and stored at −80° C. until LC-MS/MS analysis. […]"}, "[11]": {"conditions": "male, CD-1, mouse, in vivo, po, intact prodrug, brain, mice, 10 mg/kg eqv"}, "[12]": {"conditions": "male, CD-1, mouse, in vivo, po, intact prodrug, plasma, mice, 10 mg/kg eqv"}}}
{"smiles": "COc1cc(-c2nc(-c3ccccc3)c(-c3cccs3)[nH]2)cc(OC)c1OC(=O)N1CCC(N2CCCCC2)CC1", "note": "[Compound P1, 2,6-Dimethoxy-4-(4-phenyl-5-(thiophen-2-yl)-1H-imidazol-2-yl)phenyl[1,4′-bipiperidine]-1′-carboxylate]", "values": [{"measurement": "AUC", "setting": "[1]; [11]", "result": 0.477, "unit": "µM·h"}, {"measurement": "MRT", "setting": "[1]; [11]", "result": 2.12, "unit": "h"}, {"measurement": "half-life", "setting": "[1]; [11]", "result": 4.37, "unit": "h"}, {"measurement": "Cmax", "setting": "[1]; male, CD-1, mouse, in vivo, po, intact prodrug, brain, mice, 10 mg/kg eqv, read-out: Cmax", "result": "106 ± 11.6", "unit": "nM"}, {"measurement": "AUC", "setting": "[1]; [12]", "result": 0.805, "unit": "µM·h"}, {"measurement": "MRT", "setting": "[1]; [12]", "result": 3.39, "unit": "h"}, {"measurement": "half-life", "setting": "[1]; [12]", "result": 2.45, "unit": "h"}, {"measurement": "Cmax", "setting": "[1]; male, CD-1, mouse, in vivo, po, intact prodrug, plasma, mice, 10 mg/kg eqv, read-out: Cmax", "result": "546 ± 25.8", "unit": "nM"}, {"measurement": "Tmax", "setting": "[1]; [12]", "result": 1, "unit": "h"}, {"measurement": "Kp", "setting": "[1]; male, CD-1, mouse, in vivo, intact prodrug, mice, 10 mg/kg eqv, read-out: Brain:Plasma ratio", "result": 0.6}, {"measurement": "plasma exposure of the intact compound (AUC0-t)", "setting": "[2]; oral 10 mg/kg DPTIP equivalent", "result": 0.8299, "unit": "µM·h"}, {"measurement": "conversion of prodrug to DPTIP in vivo", "setting": "[2]; oral 10 mg/kg DPTIP equivalent (P18: in the brain)", "result": "about 40%"}, {"measurement": "Stability in mouse (% remaining at 1h) Mean + Std Error, Liver", "setting": "[3]", "result": "85 ± 3", "unit": "%"}, {"measurement": "improvement of brain and plasma levels of DPTIP and/or its brain penetration index compared with DPTIP", "setting": "[4]", "result": "highest improvement"}, {"measurement": "Stability in mouse (% remaining at 1h) Mean + Std Error, Plasma", "setting": "[5]; CES1−/− mouse plasma, 37° C.", "result": "90 ± 2", "unit": "%"}]}
{"smiles": "COc1cc(-c2nc(-c3cccs3)c(-c3ccccc3)[nH]2)cc(OC)c1O", "note": "[DPTIP, 2,6-dimethoxy-4-(5-phenyl-4-(thiophen-2-yl)-1H-imidazol-2-yl) phenol, reference compound]", "values": [{"measurement": "Cmax", "setting": "[1]; male, CD-1, mouse, plasma, po", "result": 400, "unit": "nM"}, {"measurement": "brain levels of DPTIP", "setting": "[1]; mice, oral 10 mg/kg DPTIP equivalent", "result": 50, "unit": "nM"}, {"measurement": "Stability in mouse (% remaining at 1h) Mean + Std Error, Brain", "setting": "[6]", "result": "89 ± 4", "unit": "%"}, {"measurement": "AUC", "setting": "[7]", "result": 7.47, "unit": "µM·h"}, {"measurement": "Cmax", "setting": "[7]", "result": 5500, "unit": "nM"}, {"measurement": "Stability in mouse (% remaining at 1h) Mean + Std Error, Liver", "setting": "[3]", "result": "98 ± 6", "unit": "%"}, {"measurement": "inhibition of EV release", "setting": "[8]", "result": "dose-dependently inhibiting EV release in vitro and in vivo"}, {"measurement": "t1/2 (rapid clearance) of DPTIP", "setting": "[9]", "result": "< 0.5", "unit": "h"}, {"measurement": "Stability in mouse (% remaining at 1h) Mean + Std Error, Plasma", "setting": "[5]; CES1−/− (carboxylesterase 1 knockout), mouse, plasma", "result": "103 ± 2", "unit": "%"}]}
{"smiles": "COc1cc(-c2nc(-c3ccccc3)c(-c3cccs3)[nH]2)cc(OC)c1OC(=O)C1=CN(C)C=CC1", "note": "[Compound P17, 2,6-Dimethoxy-4-(4-phenyl-5-(thiophen-2-yl)-1H-imidazol-2-yl)phenyl 1-methyl-1,4-dihydropyridine-3-carboxylate]", "values": [{"measurement": "Stability in mouse (% remaining at 1h) Mean + Std Error, Liver", "setting": "[3]", "result": "22 ± 1", "unit": "%"}, {"measurement": "intact prodrug remaining after 1 hour of incubation", "setting": "[10]", "result": "approximately 50%"}, {"measurement": "Stability in mouse (% remaining at 1h) Mean + Std Error, Plasma", "setting": "[5]; CES1−/− mouse plasma, 37° C.", "result": "52 ± 2", "unit": "%"}]}
